Experimental data published in patent US20250332154A1, “USE OF NAPHTHOQUINE PHOSPHATE IN PREPARATION OF A MEDICAMENT FOR TREATING AUTOIMMUNE DISEASES” (SHANGHAI PHARMACEUTICALS INDUSTRY CO., LTD, priority 2022, published 2025).

Assays:
Format in all cases: in vivo, mouse
[1] = system: purified splenic B cells of arthritic mice; experiment: TLRs-L-induced activation of purified splenic B cells from treated arthritic mice; conditions: intragastric 50, 100 mg/kg, FIG. 6
Experimental: Normal group, model group, positive medicament (1 mg/kg methotrexate) group, naphthoquine phosphate (50, 100 mg/kg) group, hydroxychloroquine sulfate (100 mg/kg) group.
Same as those described in Example 5.
At the end of the experiment, spleens of mice in each group were collected, and splenic B cells were purified as described in Example 4. Different TLRs-L were used for stimulation. ^3H-TDR incorporation method was used to detect proliferation, ELISA method was used to detect the levels of IL-6 and antibody secretion, and flow cytometry was used to detect the expressions of CD80, CD86, and CD69.
Suspensions of purified mouse B cells from each group were inoculated into a 96-well plate at 4×10^5/well, and the stimulant TLR4-L (final concentration: 10 μg/ml), TLR7-L (final concentration: 5 μg/ml) or TLR9-L (final concentration: 1 μM) was added. […] 5 ml scintillation fluid was added, and the values of radioactive counts per minute were read on a Beta counter (2450 Microplate Counter, PerkinElmer).
Suspensions of purified mouse B cells from each group were inoculated into a 96-well plate at 4×10^5/well, and the stimulant TLR4-L (final concentration: 10 μg/ml), TLR7-L (final concentration: 5 μg/ml) or TLR9-L (final concentration: 1 μM) was added. […] After the end of the culture, the cell culture supernatants were collected, and the level of IL-6 was measured by ELISA. […]

[2] = system: bovine type II collagen-induced arthritis in mice; experiment: Bovine type II collagen-induced arthritis in mice: arthritis scoring and hindfoot thickness
Experimental: (§1) Normal group, model group, positive medicament (1 mg/kg dexamethasone) group, naphthoquine phosphate (25, 50, 100 mg/kg) groups, hydroxychloroquine sulfate (100 mg/kg) group.
(§2) 10 mg of Type II Collagen (CII) was swollen in 2.5 ml of 0.1 mol/L glacial acetic acid to prepare a 4 mg/ml CII solution. This solution was fully emulsified with an equal volume of CFA, and injected subcutaneously (50 μl) at the base of the tail of mice. After 21 days, 4 mg/ml CII solution was fully emulsified with an equal volume of IFA. This mixture was injected subcutaneously (50 μL) at the base of the tail of mice to boost the immune response.
The severity of arthritis was scored by observing joint lesions of limbs of mice. Detectable arthritis accompanied by erythema in one or more fingers was scored as 1 point, moderate redness and swelling from the ankle joint to the middle of the foot was scored as 2 points, severe redness and swelling from the ankle joint to the fingers was scored as 3 points, and severe swelling with ankylosis was scored as 4 points. During scoring, bilateral hindfoot thickness was measured.

[3] = system: bovine type II collagen-induced arthritis in mice; experiment: Bone morphological analysis by Micro-CT in arthritic mice; conditions: intragastric, FIG. 5
Experimental: as §1, §2
Three-dimensional reconstruction was performed by the micro-CT technology, and bone morphology analysis was performed by professional analysis software.

[4] = system: collagen-specific antibodies; experiment: Anti-CII antibody levels in serum of arthritic mice (ELISA); conditions: intragastric, FIG. 4
Experimental: as §1, §2
50 μl CII solution (final concentration: 50 μg/ml) was added to each well of a 96-well ELISA plate for coating overnight. The plate was washed 4 times with 200 μl washing solution (1L PBS+500 μl Tween 20) per well. 100 μl 1% BSA was added to each well to block for 1 hour. The plate was then washed 4 times with 200 μl washing solution per well. 50 μl diluted serum samples from each group of mice were added to each well and incubated for 2 hours. The plate was washed 4 times with 200 μl washing solution per well. Horseradish Peroxidase (HRP)-conjugated IgG secondary antibody was added and incubated for 1 hour. […] Absorbance values at 450 nm/570 nm were read by a microplate reader (Spectra Max 190, Molecular Devices).

CC(C)(C)NCc1cc(Nc2ccnc3cc(Cl)ccc23)c2c(c1O)CCCC2.O=P(O)(O)O.O=P(O)(O)O [Naphthoquine Phosphate, Naphthoquine phosphate]
B cell activation, cytokine secretion and antibody production mediated by TLR signaling [1]: significantly inhibited
arthritis scores of model mice ([2]; intragastric, 25, 50, 100 mg/kg, FIG. 1, vs model group): significantly reduced
foot swelling in arthritic mice ([2]; intragastric, FIG. 2): improved
therapeutic effect on arthritis scores compared with hydroxychloroquine sulfate ([2]; same dose (100 mg/kg), FIG. 1): superior to that of hydroxychloroquine sulfate at the same dose
bone damage in model mice (Micro-CT) [3]: inhibited
levels of collagen-specific antibodies in serum of arthritic mice [4]: reduce
